{"source": "patent US20040214839A1", "about": "“Therapeutic methods” (priority 2001, published 2004)", "key": {"[1]": {"conditions": "in vivo; cited from earlier work"}, "[2]": {"test_system": "IL-10 release from U937 cells", "assay": "IL-10 release from U937 cells (ELISA)", "format": "cell-based, human", "conditions": "for stimulation of IL-10 in the presence of a type IV selective PDE inhibitor: with vs without type IV selective PDE inhibitor (rolipram)", "description": "U 937 cells were grown in RPMI (PAA Laboratories) medium with 10% fetal calf serum added (PAA Laboratories). 2×10^6 cells per flask were treated with prostaglandin E2 at 10^−6 Molar or with Rolipram (4×10^−6) for 24 hours. Medium was removed at […] and analysed by ELISA. A capture antibody (Pharmingen) was coated onto 96 well plates and culture medium was added each well. A standard curve was created with recombinant IL-10 protein. After incubation and washing, a biotin labelled monoclonal antibody (Pharmingen) was added and following incubation and washing, peroxidase labelled streptavidin was added. After washing a tetramethyl benzidine substrate was added and colour developed in proportion to IL-10 in the original sample/standard. Colour was read using a plate photometer (Labsystems, Multiskan). Mean concentrations (N=3) in controls with no lipopolysaccharide (LPS) were 38.2 pg/ml and in the presence of LPS (100 nM) they were 43.9 […].\nThe effect of PGE1, PGE2, 19 hydroxy PGE1 and 19 hydroxy PGE2 on the stimulation of IL-10 in the presence and absence of rolipram was investigated as described above in Example 2. IL-10 levels were measured using an ELISA assay (R&D Ltd, Oxford). Measurements were taken in accordance with the manufacturer's instructions."}, "[3]": {"test_system": "phosphodiesterase IV-b mRNA", "assay": "Phosphodiesterase IV b mRNA in U937 cells (Taqman)", "format": "cell-based, human", "conditions": "four hours of incubation; PGE 1×10^-6, 19-hydroxy PGE2 5×10^-6; without inhibitor", "description": "After the incubation (20 hours), cells were pelleted and the mRNA was extracted with Tri-reagent (Sigma, Poole, UK). Total RNA was obtained by addition of chloroform and subsequent isopropanol precipitation. RNA was reverse transcribed with reverse transcriptase (Applied Biosystems) and random hexamers (Applied Biosystems). Probes and primers for IL-10 and IL-12 (p35) were designed using Primer Express (Applied Biosystems) and were as follows:\nTemplate was amplified in a Taqman 7700 machine for 40 cycles using FAM/TAMRA dyes on the probe. The Applied Biosystems kit was used to amplify and detect ribosomal (18S)RNA (using VIC/TAMRA dyes) as an internal control in the same reaction tube. After 40 cycles the Ct (related to cycle number at which signal appears) for the FAM and the 18S (VIC) were recorded and […] relative quantitation was achieved using the formula 2^−ΔΔct where Δ refers to the difference between the FAM and VIC signal related to an standard comparator included in each run.\nThe mRNA for phosphodiesterase IV-b was measured as described in Example 2 above mRNA was extracted after four hours of incubation. The concentration of the PGE was 1×10^−6 and that of the 19-hydroxy PGE2 was 5×10^−6. The following primers and Taqman probe were used for quantitation of PDE IV b mRNA."}, "type IV PDE": {"test_system": "type IV PDE", "conditions": "cited from earlier work; for IC50: type IV PDE inhibitor"}}}
{"compound": "CCCCC(C)(O)CC=C[C@H]1[C@H](O)CC(=O)[C@@H]1CCCCCCC(=O)OC", "note": "(mixture of isomers) [misoprostol, (±) methyl 11α, 16-dihydroxy-16-methyl-9-oxoprost-13-enoate]", "values": [{"measurement": "hypotension", "setting": "[1]", "value": "does not cause hypotension"}]}
{"compound": "19-hydroxy PGE2", "values": [{"measurement": "concentration necessary to achieve similar effects to PGE", "setting": "[2]; compared with PGE, Figures and Examples", "value": "higher concentration"}, {"measurement": "stimulation of IL-10 in the presence of a type IV selective PDE inhibitor", "setting": "[2]", "value": "increased strikingly"}, {"measurement": "PDE activity (phosphodiesterase IV b mRNA) after prostaglandin application", "setting": "[3]", "value": "increase"}]}
{"compound": "Cn1c(=O)c2[nH]cnc2n(C)c1=O", "note": "[theophylline]", "values": [{"measurement": "times less effective than rolipram", "setting": "type IV PDE; non-selective inhibitor compared with rolipram", "value": 30, "unit": "times"}]}
{"compound": "COc1ccc(C2CNC(=O)C2)cc1OC1CCCC1", "note": "(stereo not drawn) [rolipram, 4-[3-cyclopentyloxy 4-methoxyphenyl]-2-pyrrolidinone]", "values": [{"measurement": "IC50", "setting": "type IV PDE", "value": 0.8, "unit": "µM"}]}
{"compound": "CCCCC[C@H](O)/C=C/[C@H]1[C@H](O)CC(=O)[C@@H]1C/C=C\\CCCC(=O)O", "note": "[PGE, prostaglandin E2]", "values": [{"measurement": "stimulation of IL-10 in the presence of a type IV selective PDE inhibitor", "setting": "[2]", "value": "increased strikingly"}, {"measurement": "PDE activity (phosphodiesterase IV b mRNA) after prostaglandin application", "setting": "[3]", "value": "increase"}]}
{"compound": "CCCCOc1cc(CC2CNC(=O)N2)ccc1OC", "note": "(stereo not drawn) [Ro-20-1724, 4-[3-butoxy-4-methoxybenzyl]-2-imidazolidinone]", "values": [{"measurement": "IC50", "setting": "type IV PDE", "value": 2, "unit": "µM"}]}
